This is an account of results in paper PMC12446422, “Breastfeeding on ART and a closer look at drug transfer to HIV-exposed uninfected infants” (Scientific Reports, 2025).

Data set [1] in a line: ART drug monitoring in maternal serum (HPLC-UV). The data set is classed as in vivo, human. To be noted: for Maternal serum level, in words: against adult target range. The method, then: (§1) HIV-exposed infants were followed at the Pediatric Infectious Diseases Outpatient Clinic at the Department of General Pediatrics according to the current German and European guidelines for HIV-exposed or infected children[6],[11]. MLWH were followed at the department of Infection Medicine, Medical Service Centre Clotten, Freiburg. […] Two mothers (infants 2 and 4) were treated with dolutegravir 50 mg (DTG), abacavir 600 mg (ABC), and lamivudine 300 mg (3TC) once daily. The […] of infant 3 received tenofovir alafenamide/emtricitabine 25/200 mg (TAF/FTC) once daily in combination with nevirapine 200 mg (NVP) twice daily.
(§2) For all HIV-exposed children visits, clinical examinations and blood sampling took place at the age of one, four and 18 to 24 months. […] Routine blood tests included blood cell counts with differentials, transaminases, bilirubin at the first presentation, HIV-PCR and at 18–24 months or after cessation of breastfeeding HIV serology was performed. Primary outcome was infant serum drug exposure; breast-milk concentrations served as supportive secondary data. Serum samples of mothers and infants were drawn during visits to our clinic. Neither the timing of maternal drug intake and breastfeeding, nor the timing of the blood samples, was standardized. Therefore, no pharmacokinetic calculations could be performed. When available, additional serum samples of infants or mothers and a breast milk sample were sent to the Drug monitoring laboratory, Division of Infectious Diseases, Department of Internal Medicine II, University of Würzburg Medical Center, Germany. […] To assess the infant’s ART drug exposure upon breastfeeding, we calculated the relative infant dose (RID). The RID is a commonly used tool for assessing drug exposure and is calculated by dividing the infant’s ART level by the mother’s ART level, expressed as a decimal or percentage[13],[14]. All information for this study was derived from routine clinical exams and was, when available, retrospectively extracted from the patients’ medical records. […] For analysis, the HEU children were divided in 2 groups: HEU breastfed infants (n = 8) and HEU formula-fed infants (n = 62). […] All research was performed in accordance with relevant guidelines and regulations. Data collection and analysis were carried out in Microsoft Excel and R.

Data set [2] is described as follows: ART drug monitoring in breast milk (HPLC-UV). The data set is classed as in vivo, human. To be noted: oral, read-out: ART level in breast milk (BM); for concentration at 6 months (infant age): human one. On the procedure:
as §1, §2

A short description of data set [3]: ART drug monitoring in serum of breastfed HEU infants (HPLC-UV). The format is in vivo, human. To be noted: for concentration at 1 month (infant age) / concentration at 6 months (infant age) / concentration at 4 months (infant age) / concentration at 14 days (infant age): human; for concentration at 6 months (infant age): 6 months of age, breastfeeding exclusive, partial or stopped; for Infant serum level, in words: breastfed infants, against detection limit or adult target range. On the procedure: as §1, §2

Data set [4] is described as follows: Relative infant dose (RID): infant ART level divided by mother's ART level. The format is in vivo, human. To be noted: for < 10% RID: target RID expressed as infant serum level. On the procedure: as §2
The RID is used for clinical risk assessment, with a target RID of below 10% indicating a low risk of adverse drug reactions in infants[16],[17].

The test system of the next data set is HEU breastfed infants. In words: Absolute neutrophil count of ART-exposed HEU breastfed infants. The data set is classed as in vivo, human. On the procedure: as §2
ART serum levels above a 10% RID of the adult target range and neutropenia <1,0 (1000/µl) are indicated in bold.

The conditions of data set [5]: target range for drug trough levels in adults; cited from earlier work.
The conditions of data set [6]: statement in discussion; cited from earlier work.
For data set [7] the following is noted: statement in discussion; cited from earlier work. This is another data set of the same source.
Where [8] appears, read: serum, other: breastfeeding (maternal ART), breastfed infant (entry one), read-out: ART level in infant serum (IS).
The mark [9] stands for this setting: all occasions, infant serum below detection, infant 4 (DTG), 8 (RAL), 5 (DRV/r), 7 (RPV).
Setting [10] is: child, infant 1 (RPV), infant 3 (nevirapine), infant 2 (DTG).
Where [11] appears, read: 14 days, breastfed infant exposed to maternal ART, ZDV prophylaxis given.
Setting [12] is: serum, other: breastfeeding (maternal ART), read-out: ART level in infant serum (IS).

“And” between values parts separate entries of the source, which are not always exact repeats. Equal values may be shown once. “Also recorded” adds a separate entry of the source.

Regarding `C[C@@H]1CCO[C@H]2Cn3cc(C(=O)NCc4ccc(F)cc4F)c(=O)c(O)c3C(=O)N12` [DTG, dolutegravir], in data set [1], the “Maternal serum level, in words” value is “within the therapeutic range”. For the same compound, the concentration at 4 months (infant age) in data set [1] (human two, serum, oral, read-out: ART level in maternal serum (MS)) was 2410 ng/mL; in data set [2] (human two) it was 648 ng/mL. The concentration at 6 months (infant age) in data set [2] is 680 ng/mL. For the same compound, the concentration at 1 month (infant age) in data set [2] (human three) and in data set [3] (setting [8]) was less than 50 ng/mL in each case. Further, the results for the “RID (relative infant dose)” value in data set [4] (setting [9]) and in data set [4] (setting [10]) were less than 10% and 240%, respectively. Also, the “< 10% RID” value in data set [4] was less than 400 ng/mL. Further, the “Neutro_abs (absolute neutrophil count)” value in the data set on HEU breastfed infants (18 months) is listed as 3,25 1000/ µl; in the data set with HEU breastfed infants (setting [11]) it was 3,53 1000/ µl. In addition, the Adult trough level in data set [5] was 250 to 4000 ng/mL. In data set [6], the Lipophilicity result is listed as “moderately lipophilic”.
Regarding `Cc1ccnc2c1NC(=O)c1cccnc1N2C1CC1` [NVP, nevirapine], the concentration at 6 months (infant age) was found to be 3930 ng/mL in data set [1] (human one, serum, oral, read-out: ART level in maternal serum (MS)) and 649 ng/mL in data set [3] (setting [12]). In data set [3] (setting [8]), the concentration at 1 month (infant age) amounted to 1210 ng/mL. Also, the concentration at 4 months (infant age) in data set [3] (serum, other: breastfeeding (maternal ART), breastfed infant (entry two), read-out: ART level in infant serum (IS)) was found to be 1150 ng/mL. Moreover, the “RID (relative infant dose)” value in data set [4] (setting [10]) is recorded as 171%. Moreover, the “< 10% RID” value in data set [4] was less than 670 ng/mL. The “Neutro_abs (absolute neutrophil count)” value in the data set with HEU breastfed infants (1 month) is on record as 1,53 1000/ µl; with HEU breastfed infants (4 months), 1,20 1000/ µl; with HEU breastfed infants (6 months) it was 3,33 1000/ µl; with HEU breastfed infants (18 months) it was 1,32 1000/ µl. In addition, in data set [5], the Adult trough level is 1600 to 6700 ng/mL. Also, in data set [6], the Lipophilicity result is “highly lipophilic”.
For `Cc1cc(/C=C/C#N)cc(C)c1Nc1ccnc(Nc2ccc(C#N)cc2)n1` [RPV, rilpivirine], the “Maternal serum level, in words” value in data set [1] is reported as “above the adult target range; also recorded: well above the adult therapeutic range”. Further, the concentration at 6 months (infant age) in data set [2] and in data set [3] (setting [12]) was less than 50 ng/mL in each case. In addition, the concentration at 1 month (infant age) in data set [2] (human three) was less than 50 ng/mL. Further, the “Infant serum level, in words” value in data set [3] is recorded as “below the detectable range; also recorded: below the range of detection; also recorded: above the adult target range”. The figures for the “RID (relative infant dose)” value in data set [4] (setting [9]) and in data set [4] (setting [10]) were less than 10% and 633%, respectively. The “< 10% RID” value in data set [4] is less than 20 ng/mL. The “Neutro_abs (absolute neutrophil count)” value was 1,80 1000/ µl and 1,15 1000/ µl and 1,05 1000/ µl in the data set with HEU breastfed infants (4 months); 1,77 1000/ µl and 1,65 1000/ µl and 1,39 1000/ µl in the data set on HEU breastfed infants (18 months); 2,25 1000/ µl and 2,27 1000/ µl in the data set on HEU breastfed infants (setting [11]). Further, the Adult trough level in data set [5] is 50 to 200 ng/mL. In data set [6], the Lipophilicity result was “highly lipophilic”.
Consider `Cc1nnc(C(=O)NC(C)(C)c2nc(C(=O)NCc3ccc(F)cc3)c(O)c(=O)n2C)o1` [RAL, raltegravir], for which the concentration at 1 month (infant age) was 872 ng/mL in data set [1] (female, human, in vivo); 293 ng/mL in data set [2] (female, human, 1 month of age); less than 75 ng/mL in data set [3] (in vivo). Also, the concentration at 4 months (infant age) in data set [1] (female, human, in vivo) is 184 ng/mL; in data set [2] (female, human, 4 months of age), 168 ng/mL; in data set [3] (in vivo), less than 75 ng/mL. Further, the concentration at 14 days (infant age) was less than 75 ng/mL in data set [1] (female, human, serum, oral, 14 days of age, timing of intake and sampling not standardized, read-out: ART level in maternal serum (MS)); 1760 ng/mL in data set [2] (female, human, 14 days of age); less than 75 ng/mL in data set [3] (in vivo). For the same compound, the “Infant serum level, in words” value in data set [3] is reported as “below the detectable range”. The “< 10% RID” value in data set [4] is less than 55 ng/mL. Besides, the “Neutro_abs (absolute neutrophil count)” value with HEU breastfed infants (1 month) is given as 1,32 1000/ µl; with HEU breastfed infants (18 months) it was 3,35 1000/ µl; in the data set with HEU breastfed infants (setting [11]), 2,74 1000/ µl. In data set [6], the Lipophilicity result is “moderately lipophilic”.
For `CC(C)CN(C[C@@H](O)[C@H](Cc1ccccc1)NC(=O)O[C@H]1CO[C@H]2OCC[C@H]21)S(=O)(=O)c1ccc(N)cc1` [DRV, darunavir], the concentration at 1 month (infant age) is 3800 ng/mL in data set [1] (female, human, in vivo, 1 month of age, read-out: ART level in maternal serum (MS)) and less than 250 ng/mL in data set [2] (human three). Moreover, the concentration at 4 months (infant age) in data set [1] (female, human, in vivo, 4 months of age, read-out: ART level in maternal serum (MS)) was 4130 ng/mL; in data set [2] (human two) it was less than 250 ng/mL; in data set [3] (in vivo, breastfed infant (entry three), read-out: ART level in infant serum (IS)) it was less than 50 ng/mL. Moreover, the concentration at 6 months (infant age) is 3360 ng/mL in data set [1] (female, human, in vivo, 6 months of age, read-out: ART level in maternal serum (MS)) and less than 250 ng/mL in data set [2]. In data set [3], the “Infant serum level, in words” value was “below detectable levels”. The concentration at 14 days (infant age) in data set [3] (in vivo, breastfed infant (entry one), read-out: ART level in infant serum (IS)) is less than 50 ng/mL. Moreover, the “< 10% RID” value in data set [4] was less than 380 ng/mL. Also, the “Neutro_abs (absolute neutrophil count)” value in the data set with HEU breastfed infants (1 month) is recorded as 0,69 1000/ µl; in the data set on HEU breastfed infants (4 months), 0,64 1000/ µl; in the data set with HEU breastfed infants (6 months) it was 1,15 1000/ µl; with HEU breastfed infants (setting [11]), 1,16 1000/ µl. Moreover, the Lipophilicity entry in data set [6] is given as “lipophilic”. For the same compound, the Plasma protein binding entry in data set [7] was “high”.
